Where “and” joins values, the source holds several entries; their conditions need not be identical. Equal entries are not always repeated. Where two headings read alike, the source gives them in different places.
Key:
[1] = system: maximal electroshock (MES) model; experiment: maximal electroshock (MES) model; format: in vivo, mouse; settings: for responders at 30 mg/kg / responders at 100 mg/kg / responders at 300 mg/kg: Mus musculus, MES; for responders at 30 mg/kg: 30 mg/kg ip; for responders at 30 mg/kg / responders at 300 mg/kg: read-out: number of animals protected/number of animals tested; for responders at 100 mg/kg: 100 mg/kg ip, read-out: number of animals protected/number of animals tested (converted); for responders at 300 mg/kg: 300 mg/kg ip
Description: (§1) All compounds (FIG. 1) were screened in three whole mouse models: the maximal electroshock model (MES), the scMET test (pentylenetetrazole, Metrazol), and the 6 Hz psychomotor seizure model of partial epilepsy (32 mA). Adult male CF No 1 albino mice (26-30 g) were used for the 6 Hz test and 18-25 g mice were used in the MES and scMet tests. The animals are housed, fed, and handled in a manner consistent with the recommendations in the National Council Publication, “Guide for the Care and Use of Laboratory Animals”. The animal studies were performed by the NINDS Anticonvulsant Screening Program under IACUC number 09-12014. All compounds were administered ip in polyethylene glycol, 30%.
(§2) The MES model, which generates generalized tonic-clonic seizures, involved pretreating mice with experimental compound, and administering 60 Hz of alternating current (50 mA) for 2 s via corneal electrodes. Prior to current administration, the animal's corneas were treated topically with 1% tetracaine. Animals are considered protected if the hindlimb tonic extensor component is absent. The scMET test was done by pretreating mice with experimental compound and administering 85 mg/kg Metrazol into the loose folds of the skin in the midline of the neck. Eighty-five mg/kg Metrazol is the dose that causes seizures in 97% (CD97) of control animals.

[2] = system: scMET model (pentylenetetrazole, Metrazol); experiment: scMET test (subcutaneous Metrazol); format: in vivo, mouse; settings: for responders at 30 mg/kg / responders at 100 mg/kg / responders at 300 mg/kg: Mus musculus, scMET, read-out: number of animals protected/number of animals tested; for responders at 30 mg/kg: 30 mg/kg ip; for responders at 100 mg/kg: 100 mg/kg ip; for responders at 300 mg/kg: 300 mg/kg ip
Description: as §1, §2

6 Hz (32 mA) model = experiment: 6 Hz (32 mA) psychomotor seizure model of partial epilepsy; format: in vivo, mouse; settings: for ED50: ip; for complete protection, animals: 6 Hz, one or more time points from 0.25 or 1 h; for antiseizure activity in the 6 Hz model: mouse, in vivo; for Protective effects, number of animals protected/number of animals tested: 100 mg/kg ip
Description: as §1
(§3) The 6 Hz test (also known as the minimal clonic seizure, or psychomotor test) involved delivering a corneal stimulus of 32 mA for 3 s. This current elicits psychomotor seizures in 97% of untreated animals. Seizures consist of a minimal clonic phase followed by stereotyped automatistic behaviors. Animals not showing such behaviors were considered protected. Toxicity was determined by the rotorod test. For this test, the animal is placed on a rotorod at 6 rpm following dosing. The animal is considered toxic if it falls off the rotorod three times in a 1 min period. The ED50, TD50 and confidence intervals were determined by probit analysis.

rotorod test = experiment: Toxicity by the rotorod test; format: in vivo; settings: for TD50: rotorod, ip, probit analysis
Description: All compounds (FIG. 1) were screened in three whole mouse models: the maximal electroshock model (MES), the scMET test (pentylenetetrazole, Metrazol), and the 6 Hz psychomotor seizure model of partial epilepsy (32 mA). Adult male CF No 1 albino mice (26-30 g) were used for the 6 Hz test and 18-25 g mice were used in the MES and scMet tests. The animals are housed, fed, and handled in a manner consistent with the recommendations in the National Council Publication, “Guide for the Care and Use of Laboratory Animals”. […] All compounds were administered ip in polyethylene glycol, 30%.
as §3, with “This current elicits psychomotor seizures in 97% of untreated animals.” left out

[3] = Mus musculus, 6 Hz (32 mA), probit analysis, read-out: ED50

## CC(C)c1cc(C(O)C(F)(F)F)cc(Br)c1O (stereo not drawn) [RM122, 2-Bromo-6-isopropyl-4-(2,2,2-trifluoro-1-hydroxy-ethyl)-phenol]
[1]; 0.5 h
  responders at 30 mg/kg: 0%
  responders at 100 mg/kg: 0%
  responders at 300 mg/kg: 0%
[1]; 4 h
  responders at 30 mg/kg: 0%
  responders at 100 mg/kg: 0%
  responders at 300 mg/kg: 0%
[1]; any dose (30-300 mg/kg ip)
  MES protection: no MES protection
[2]; 0.5 h
  responders at 30 mg/kg: 0%
  responders at 100 mg/kg: 0%
  responders at 300 mg/kg: 0%
[2]; 4 h
  responders at 30 mg/kg: 0%
  responders at 100 mg/kg: 0%
  responders at 300 mg/kg: 0%
6 Hz (32 mA) model; 6 Hz (32 mA), probit analysis
  ED50: 112.45 mg/kg
6 Hz (32 mA) model; 100 mg/kg
  complete protection, animals: 4 of 4
6 Hz (32 mA) model; [3]
  ED50: 112 mg/kg
Rotorod test
  TD50: 403 mg/kg and 403.12 mg/kg

## CC(C)c1cc(C(O)C(F)(F)F)ccc1O (stereo not drawn) [RM125, 2-iso-Propyl-4-(2,2,2-trifluoro-1-hydroxy-ethyl)-phenol]
[1]; 300 mg/kg dose
  MES protection: some protection
  MES protection, time points after dosing: protection at both 0.5 and 4 h
[1]; 0.5 h
  responders at 30 mg/kg: 0%
  responders at 100 mg/kg: 0%
  responders at 300 mg/kg: 100%
[1]; 4 h
  responders at 30 mg/kg: 0%
  responders at 100 mg/kg: 0%
  responders at 300 mg/kg: 100%
[1]; 0.25 h
  responders at 100 mg/kg: 0%
[1]; 1 h
  responders at 100 mg/kg: 33.3%
[1]; 2 h
  responders at 100 mg/kg: 33.3%
[1]; 6 h
  responders at 100 mg/kg: 0%
[2]; 300 mg/kg dose
  scMET protection, time points after dosing: protection at the highest 300 mg/kg dose at 0.5 and 4 h
[2]; 0.5 h
  responders at 30 mg/kg: 0%
  responders at 100 mg/kg: 0%
  responders at 300 mg/kg: 100%
[2]; 4 h
  responders at 30 mg/kg: 0%
  responders at 100 mg/kg: 0%
  responders at 300 mg/kg: 100%
6 Hz (32 mA) model; 6 Hz (32 mA), probit analysis
  ED50: 84.12 mg/kg
6 Hz (32 mA) model; 100 mg/kg
  complete protection, animals: 4 of 4
6 Hz (32 mA) model; [3]
  ED50: 84 mg/kg
6 Hz (32 mA) model
  antiseizure activity in the 6 Hz model: relatively good antiseizure activity
Rotorod test
  TD50: 161.12 mg/kg

## CCC(C)c1cc(C(O)C(F)(F)F)cc(Br)c1O (stereo not drawn) [RM129, 2-Bromo-6-sec-Butyl-4-(2,2,2-trifluoro-1-hydroxy-ethyl)-phenol]
[1]; 300 mg/kg dose
  MES protection: some protection
  MES protection, time points after dosing: protected only at 0.5 h
[1]; 0.5 h
  responders at 30 mg/kg: 0%
  responders at 100 mg/kg: 0%
  responders at 300 mg/kg: 100%
[1]; 4 h
  responders at 30 mg/kg: 0%
  responders at 100 mg/kg: 0%
  responders at 300 mg/kg: 0%
[1]; 0.25 h
  responders at 100 mg/kg: 0%
[1]; 1 h
  responders at 100 mg/kg: 0%
[2]; 0.5 h
  responders at 30 mg/kg: 0%
  responders at 100 mg/kg: 0%
  responders at 300 mg/kg: 0%
[2]; 4 h
  responders at 30 mg/kg: 0%
  responders at 100 mg/kg: 0%
  responders at 300 mg/kg: 0%
6 Hz (32 mA) model; 100 mg/kg
  complete protection, animals: 4 of 4
6 Hz (32 mA) model; Mus musculus
  ED50: 87.6 mg/kg
Rotorod test
  TD50: 144.4 mg/kg

## CCC(C)c1cc(C(O)C(F)(F)F)ccc1O (stereo not drawn) [RM131, 2-sec-Butyl-4-(2,2,2-trifluoro-1-hydroxy-ethyl)-phenol]
[1]; 300 mg/kg dose
  MES protection: some protection
  MES protection, time points after dosing: protected only at 0.5 h
[1]; 0.5 h
  responders at 30 mg/kg: 0%
  responders at 100 mg/kg: 0%
  responders at 300 mg/kg: 100%
[1]; 4 h
  responders at 30 mg/kg: 0%
  responders at 100 mg/kg: 0%
  responders at 300 mg/kg: 0%
[2]; 0.5 h
  responders at 30 mg/kg: 0%
  responders at 100 mg/kg: 0%
  responders at 300 mg/kg: 100%
[2]; 4 h
  responders at 30 mg/kg: 0%
  responders at 100 mg/kg: 0%
  responders at 300 mg/kg: 0%
6 Hz (32 mA) model; 6 Hz (32 mA), probit analysis
  ED50: 53.85 mg/kg
6 Hz (32 mA) model; 100 mg/kg
  complete protection, animals: 4 of 4
6 Hz (32 mA) model; [3]
  ED50: 53.8 mg/kg
6 Hz (32 mA) model
  antiseizure activity in the 6 Hz model: relatively good antiseizure activity
Rotorod test
  TD50: 86 mg/kg and 86.04 mg/kg

## CCc1cc(C(O)C(F)(F)F)ccc1O (stereo not drawn) [RM166, 2-Ethyl-4-(2,2,2-trifluoro-1-hydroxy-ethyl)-phenol]
[1]; 0.5 h
  responders at 30 mg/kg: 0%
  responders at 100 mg/kg: 0%
  responders at 300 mg/kg: 0%
[1]; 4 h
  responders at 30 mg/kg: 0%
  responders at 100 mg/kg: 0%
  responders at 300 mg/kg: 0%
[1]; any dose (30-300 mg/kg ip)
  MES protection: no MES protection
[2]; 0.5 h
  responders at 30 mg/kg: 0%
  responders at 100 mg/kg: 0%
  responders at 300 mg/kg: 0%
[2]; 4 h
  responders at 30 mg/kg: 0%
  responders at 100 mg/kg: 0%
  responders at 300 mg/kg: 0%
6 Hz (32 mA) model; 100 mg/kg, any time point from 0.25 to 4 h
  protective effects in the 6 Hz test: no protective effects
6 Hz (32 mA) model; 6 Hz (32 mA), 0.25 h
  Protective effects, number of animals protected/number of animals tested: 0/4
6 Hz (32 mA) model; 6 Hz (32 mA), 0.5 h
  Protective effects, number of animals protected/number of animals tested: 0/4
6 Hz (32 mA) model; 6 Hz (32 mA), 1 h
  Protective effects, number of animals protected/number of animals tested: 0/4
6 Hz (32 mA) model; 6 Hz (32 mA), 2 h
  Protective effects, number of animals protected/number of animals tested: 0/4
6 Hz (32 mA) model; 6 Hz (32 mA), 4 h
  Protective effects, number of animals protected/number of animals tested: 1/4
Rotorod test; dose 100 mg/kg ip, 0.5 h
  Toxicity, animals/number of animals tested: 0/8
Rotorod test; dose 100 mg/kg ip, 4 h
  Toxicity, animals/number of animals tested: 0/4
Rotorod test; dose 30 ip, 0.5 h
  Toxicity, animals/number of animals tested: 0/4
Rotorod test; dose 30 ip, 4 h
  Toxicity, animals/number of animals tested: 0/2
Rotorod test; dose 300 ip, 0.5 h
  Toxicity, animals/number of animals tested: 0/4
Rotorod test; dose 300 ip, 4 h
  Toxicity, animals/number of animals tested: 0/2
Rotorod test; doses up to 300 mg/kg
  evidence of toxicity: Neither RM170 nor RM166 showed any evidence of toxicity

Source: patent US9422248B2 (University of Iowa Research Foundation, priority 2012, dated 2016)
